Measurements from patent US9670227B2, “Thienopyrimidine derivatives, a process for their preparation and pharmaceutical compositions containing them” (LES LABORATOIRES SERVIER, priority 2013, dated 2017).
Where two headings read alike, the source gives them in different places.

Experiments:
[1] = system: H929 multiple myeloma tumour line; test: In vitro cytotoxicity, Microculture Tetrazolium Assay; format: cell-based; conditions: H929 cells, 48 hours exposure, MTT, read-out: IC50 (μM) MTT H929
Procedure: The cytotoxicity studies were carried out on the H929 multiple myeloma tumour line.
The cells are distributed onto microplates and exposed to the test compounds for 48 hours.

Mcl-1 protein = Mcl-1 protein (UniProtKB primary accession number: Q07820) (Homo sapiens, UniProt Q07820); test: Inhibition of Mcl-1 by fluorescence polarisation, Method 1; format: binding; conditions: fluorescence polarisation; Method 1, or Method 2; read-out: IC50 (M) Mcl-1 FP
Outline: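 Binding was measured as fluorescence polarisation of a fluorescein-labelled ligand (1 nM) displaced from Mcl-1 (5 nM), both final. Compounds ran as 11-point series with final DMSO at 5%.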

Sequence of Mcl-1 protein (Q07820 whole entry): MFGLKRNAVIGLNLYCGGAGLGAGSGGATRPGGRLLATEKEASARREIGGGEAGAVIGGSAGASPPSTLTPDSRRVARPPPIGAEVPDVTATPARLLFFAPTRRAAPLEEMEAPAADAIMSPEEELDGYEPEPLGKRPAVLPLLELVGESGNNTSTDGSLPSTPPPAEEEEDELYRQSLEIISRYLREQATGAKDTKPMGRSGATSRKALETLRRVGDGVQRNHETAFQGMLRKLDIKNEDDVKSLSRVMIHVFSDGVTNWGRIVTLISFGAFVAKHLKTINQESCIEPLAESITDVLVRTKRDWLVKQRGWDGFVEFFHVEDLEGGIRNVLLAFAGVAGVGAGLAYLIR

IC50 (Mcl-1 protein) [M]	Structure (SMILES)	IC50 ([1]; Homo sapiens, NCI-H929, 48 h) [µM]	IC50 [1] [µM]
1.3e-08	CCc1sc2ncnc(OC(Cc3ccccc3)C(=O)O)c2c1-c1ccc(OCCN2CCC(O)CC2)c(Cl)c1C [Example 413, (2R)-2-[((5Sa)-5-{3-chloro-4-[2-(4-hydroxypiperidin-1-yl)ethoxy]-2-methylphenyl}-6-ethylthieno[2,3-d]pyrimidin-4-yl)oxy]-3-phenylpropanoic acid]	15.8	
5.6e-08	CCc1sc2ncnc(OC(Cc3ccccc3)C(=O)O)c2c1-c1ccc(OCCn2ccnc2)c(Cl)c1C [Example 418, (2R)-2-[((5Sa)-5-{3-chloro-4-[2-(1H-imidazol-1-yl)ethoxy]-2-methylphenyl}-6-ethylthieno[2,3-d]pyrimidin-4-yl)oxy]-3-phenylpropanoic acid]	13.3	
3.4e-08	CCc1sc2ncnc(OC(Cc3ccccc3)C(=O)O)c2c1-c1ccc(OCCN2CCNC2=O)c(Cl)c1C [Example 419, (2R)-2-[((5Sa)-5-{3-chloro-2-methyl-4-[2-(2-oxoimidazolidin-1-yl)ethoxy]phenyl}-6-ethylthieno[2,3-d]pyrimidin-4-yl)oxy]-3-phenylpropanoic acid]	21.5	
4e-08	CCc1sc2ncnc(OC(Cc3ccccc3)C(=O)O)c2c1-c1ccc(OCCN2CCOCC2)c(Cl)c1C [Example 420, (2R)-2-[((5Sa)-5-{3-chloro-2-methyl-4-[2-(morpholin-4-yl)ethoxy]phenyl}-6-ethylthieno[2,3-d]pyrimidin-4-yl)oxy]-3-phenylpropanoic acid]	15.6	
1.4e-08	CCc1sc2ncnc(OC(Cc3ccccc3)C(=O)O)c2c1-c1ccc(OCCNC(C)=O)c(Cl)c1C [Example 422, (2R)-2-[((5Sa)-5-{4-[2-(acetylamino)ethoxy]-3-chloro-2-methylphenyl}-6-ethylthieno[2,3-d]pyrimidin-4-yl)oxy]-3-phenylpropanoic acid]	14.4	
1.7e-07	CCc1sc2ncnc(OC(Cc3ccccc3)C(=O)O)c2c1-c1cc(CN2CCN(C)CC2)c(OC)c(Cl)c1C [Example 434, (2R)-2-[((5Sa)-5-{3-chloro-4-methoxy-2-methyl-5-[(4-methylpiperazin-1-yl)methyl]phenyl}-6-ethylthieno[2,3-d]pyrimidin-4-yl)oxy]-3-phenylpropanoic acid]	11.3	
3.2e-07	CCc1sc2ncnc(OC(Cc3ccccc3)C(=O)O)c2c1-c1cc([N+](=O)[O-])c(OCCN2CCN(C)CC2)c(Cl)c1C [Example 435, (2R)-2-[((5Sa)-5-{3-chloro-2-methyl-4-[2-(4-methylpiperazin-1-yl)ethoxy]-5-nitrophenyl}-6-ethylthieno[2,3-d]pyrimidin-4-yl)oxy]-3-phenylpropanoic acid]	11.1	
2.9e-08	CCc1sc2ncnc(OC(Cc3ccccc3)C(=O)O)c2c1-c1cc(Cl)c(OCCN2CCN(C)CC2)c(Cl)c1C [Example 436, (2R)-2-[((5Sa)-5-{3,5-dichloro-2-methyl-4-[2-(4-methylpiperazin-1-yl)ethoxy]phenyl}-6-ethylthieno[2,3-d]pyrimidin-4-yl)oxy]-3-phenylpropanoic acid]	15.1	
4.5e-08	CCc1sc2ncnc(OC(Cc3ccccc3)C(=O)O)c2c1-c1cc(N)c(OCCN2CCN(C)CC2)c(Cl)c1C [Example 437, (2R)-2-[((5Sa)-5-{5-amino-3-chloro-2-methyl-4-[2-(4-methylpiperazin-1-yl)ethoxy]phenyl}-6-ethylthieno[2,3-d]pyrimidin-4-yl)oxy]-3-phenylpropanoic acid]	20.3	
1.3e-07	CCc1sc2ncnc(OC(Cc3ccccc3)C(=O)O)c2c1-c1cc2nc(CN3CCN(C)CC3)oc2c(Cl)c1C [Example 445, (2R)-2-[((5Sa)-5-{7-chloro-6-methyl-2-[(4-methylpiperazin-1-yl)methyl]-1,3-benzoxazol-5-yl}-6-ethylthieno[2,3-d]pyrimidin-4-yl)oxy]-3-phenylpropanoic acid]	21	
1.1e-07	CCc1sc2ncnc(OC(Cc3ccccc3)C(=O)O)c2c1-c1cc2nc(CN3CCOCC3)oc2c(Cl)c1C [Example 446, (2R)-2-({(5Sa)-5-[7-chloro-6-methyl-2-(morpholin-4-ylmethyl)-1,3-benzoxazol-5-yl]-6-ethylthieno[2,3-d]pyrimidin-4-yl}oxy)-3-phenylpropanoic acid]	25.7	
6.2e-09	CCc1sc2ncnc(OC(Cc3ccccc3OCc3ccnc(OC)n3)C(=O)O)c2c1-c1ccc(OCCN2CCN(C)CC2)c(Cl)c1C [Example 455, (2R)-2-[((5Sa)-5-{3-chloro-2-methyl-4-[2-(4-methylpiperazin-1-yl)ethoxy]phenyl}-6-ethylthieno[2,3-d]pyrimidin-4-yl)oxy]-3-{2-[(2-methoxypyrimidin-4-yl)methoxy]phenyl}propanoic acid]	0.339	
8e-09	CCc1sc2ncnc(OC(Cc3ccccc3OCc3ccnn3CC)C(=O)O)c2c1-c1ccc(OCCN2CCN(C)CC2)c(Cl)c1C [Example 456, (2R)-2-[((5Sa)-5-{3-chloro-2-methyl-4-[2-(4-methylpiperazin-1-yl)ethoxy]phenyl}-6-ethylthieno[2,3-d]pyrimidin-4-yl)oxy]-3-{2-[(1-ethyl-1H-pyrazol-5-yl)methoxy]phenyl}propanoic acid]	0.513	
1.3e-07	CCc1sc2ncnc(OC(Cc3cccc4c3OCO4)C(=O)O)c2c1-c1ccc(OCCN2CCN(C)CC2)c(Cl)c1C [Example 460, (2R)-3-(1,3-benzodioxol-4-yl)-2-[((5Sa)-5-{3-chloro-2-methyl-4-[2-(4-methylpiperazin-1-yl)ethoxy]phenyl}-6-ethylthieno[2,3-d]pyrimidin-4-yl)oxy]propanoic acid]	6.82	
8.5e-08	CCc1sc2ncnc(OC(Cc3cccc4ccoc34)C(=O)O)c2c1-c1ccc(OCCN2CCN(C)CC2)c(Cl)c1C [Example 461, (2R)-3-(1-benzofuran-7-yl)-2-[((5Sa)-5-{3-chloro-2-methyl-4-[2-(4-methylpiperazin-1-yl)ethoxy]phenyl}-6-ethylthieno[2,3-d]pyrimidin-4-yl)oxy]propanoic acid]	4.86	
4.6e-08	CCc1sc2ncnc(OC(Cc3ccccc3F)C(=O)O)c2c1-c1ccc(OCCN2CCN(C)CC2)c(Cl)c1C [Example 463, (2R)-2-[((5Sa)-5-{3-chloro-2-methyl-4-[2-(4-methylpiperazin-1-yl)ethoxy]phenyl}-6-ethylthieno[2,3-d]pyrimidin-4-yl)oxy]-3-(2-fluorophenyl)propanoic acid]	5.11	
2.5e-08	CC#Cc1sc2ncnc(OC(Cc3ccccc3OC)C(=O)O)c2c1-c1ccc(OCCC2CCN(C)CC2)c(Cl)c1C [Example 465, (2R)-2-{[(5Sa)-5-{3-chloro-2-methyl-4-[2-(1-methylpiperidin-4-yl)ethoxy]phenyl}-6-(prop-1-yn-1-yl)thieno[2,3-d]pyrimidin-4-yl]oxy}-3-(2-methoxyphenyl)propanoic acid]	2.06	
3.9e-08	CC#Cc1sc2ncnc(OC(Cc3ccccc3OC)C(=O)O)c2c1-c1ccc(OCCN(C(C)C)C(C)C)c(Cl)c1C [Example 466, (2R)-2-{[(5Sa)-5-(3-chloro-4-{2-[di(propan-2-yl)amino]ethoxy}-2-methylphenyl)-6-(prop-1-yn-1-yl)thieno[2,3-d]pyrimidin-4-yl]oxy}-3-(2-methoxyphenyl)propanoic acid]	3.35	
1.1e-08	CC#Cc1sc2ncnc(OC(Cc3ccccc3OC)C(=O)O)c2c1-c1ccc(OCCN(C)C)c(Cl)c1C [Example 467, (2R)-2-{[(5Sa)-5-{3-chloro-4-[2-(dimethylamino)ethoxy]-2-methylphenyl}-6-(prop-1-yn-1-yl)thieno[2,3-d]pyrimidin-4-yl]oxy}-3-(2-methoxyphenyl)propanoic acid]	0.502	
8.6e-09	CC#Cc1sc2ncnc(OC(Cc3ccccc3OC)C(=O)O)c2c1-c1ccc(OCCN2CCCC2)c(Cl)c1C [Example 468, (2R)-2-{[(5Sa)-5-{3-chloro-2-methyl-4-[2-(pyrrolidin-1-yl)ethoxy]phenyl}-6-(prop-1-yn-1-yl)thieno[2,3-d]pyrimidin-4-yl]oxy}-3-(2-methoxyphenyl)propanoic acid]	2.02	
1.5e-08	CC#Cc1sc2ncnc(OC(Cc3ccccc3OC)C(=O)O)c2c1-c1ccc(OCCN2CCCCC2)c(Cl)c1C [Example 469, (2R)-2-{[(5Sa)-5-{3-chloro-2-methyl-4-[2-(piperidin-1-yl)ethoxy]phenyl}-6-(prop-1-yn-1-yl)thieno[2,3-d]pyrimidin-4-yl]oxy}-3-(2-methoxyphenyl)propanoic acid]	3.06	
6.8e-09	CC#Cc1sc2ncnc(O[C@H](Cc3ccccc3OC)C(=O)O)c2c1-c1cc(C)c(OCCN2CCN(C)CC2)c(Cl)c1C [Example 475, (2R)-2-{[(5Sa)-5-{3-chloro-2,5-dimethyl-4-[2-(4-methylpiperazin-1-yl)ethoxy]phenyl}-6-(prop-1-yn-1-yl)thieno[2,3-d]pyrimidin-4-yl]oxy}-3-(2-methoxyphenyl)propanoic acid]		1.12
2e-08	CC#Cc1sc2ncnc(OC(Cc3ccccc3OC)C(=O)O)c2c1-c1cc(F)c(OCCN2CCN(C)CC2)c(Cl)c1C [Example 476, (2R)-2-{[(5Sa)-5-{3-chloro-5-fluoro-2-methyl-4-[2-(4-methylpiperazin-1-yl)ethoxy]phenyl}-6-(prop-1-yn-1-yl)thieno[2,3-d]pyrimidin-4-yl]oxy}-3-(2-methoxyphenyl)propanoic acid]	1.03	
